Reference: publication PMC2645942 (Journal of medicinal chemistry, 2008)

Experiments:
[1] = target: αD97Cβγ (α1D97Cβ2γ2 GABAA receptor) (Rattus norvegicus, UniProt P18508+P62813, D124C/INS375LLRMFSFK); test: Radioligand binding, αD97Cβγ mutant
[2] = target: αβγF77C (α1β2γ2F77C GABAA receptor) (Rattus norvegicus, UniProt P18508+P62813, F115C/INS375LLRMFSFK); test: Radioligand binding, αβγF77C mutant
[3] = target: αY209Cβγ (α1Y209Cβ2γ2 GABAA receptor) (Rattus norvegicus, UniProt P18508+P62813, INS375LLRMFSFK/Y236C); test: Radioligand binding, αY209Cβγ mutant

Measured: specific binding of radioligand

CCOC(=O)c1ncn2c1CN(C)C(=O)c1cc(F)ccc1-2 [Ro15-1788, ethyl 8-fluoro-5,6-dihydro-5-methyl-6-oxo-4H-imidazo[1,5-a][1,4]benzodiazepine-3-carboxylate]
not measurable: all assays above

CN1C(=O)CN=C(c2ccccc2F)c2cc([N+](=O)[O-])ccc21 [flunitrazepam]
not measurable: all assays above
